From PubChem BioAssay (NCI) come the findings set out here.

Test systems include MDA-MB-231 breast; RPMI-8226 leukemia; IGROV1 ovarian; HCT-15 colon; DU-145 prostate; MOLT-4 leukemia; CCRF-CEM leukemia; U251 CNS; MCF7 breast; HT29 colon; SF-268 CNS; OVCAR-4 ovarian; UO-31 renal; SK-MEL-5 melanoma; HCC-2998 colon; CAKI-1 renal; OVCAR-3 ovarian; HOP-92 NSCLC; SK-MEL-2 melanoma.
Test in all cases: DTP human tumour cell line panel, 48 h

Each structure is given as a SMILES string.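 Assay format: 96-well plates, 48-hour exposure. Definition used: TGI = concentration required for complete inhibition of growth.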

Turning to `Cc1cc(C)nc(NS(=O)(=O)c2ccc(NNc3c4ccccc4nc4c(C(=O)Nc5ccc(S(=O)(=O)Nc6ncccn6)cc5)cccc34)cc2)n1`, the TGI (as a rule, the concentration at which net growth stops) with MDA-MB-231 breast is 65.3 µM; in the assay on RPMI-8226 leukemia, 76.8 µM; with IGROV1 ovarian, over 100 µM; with HCT-15 colon, over 100 µM; in the assay on DU-145 prostate, over 100 µM; in the assay on MOLT-4 leukemia, 92.9 µM. Moreover, the TGI in the assay on CCRF-CEM leukemia is 59.9 µM; in the assay with U251 CNS, 56 µM; in the assay with MCF7 breast, over 100 µM; with HT29 colon, 77.4 µM; in the assay with SF-268 CNS, over 100 µM; with OVCAR-4 ovarian it was 89.7 µM. For the same molecule, the concentration for total growth inhibition (TGI) in the assay with UO-31 renal was over 100 µM; in the assay on SK-MEL-5 melanoma it was 47.5 µM; with HCC-2998 colon, 51.2 µM; with CAKI-1 renal it was over 100 µM; in the assay on OVCAR-3 ovarian, 42.2 µM; in the assay with HOP-92 NSCLC, 66.5 µM. Also, the TGI with SK-MEL-2 melanoma came out at 43.6 µM.
Take `CC(C)=CCC[C@@H](C)C1=C(O)C(O)C(C)=C2N=C(c3ccccc3)C(=O)OC21` (some centres undefined): the concentration for total growth inhibition (TGI) is 17.3 µM with MDA-MB-231 breast; over 7.03 µM in the assay on RPMI-8226 leukemia; over 25 µM with IGROV1 ovarian; over 25 µM in the assay on HCT-15 colon; over 25 µM in the assay with DU-145 prostate; over 19.3 µM in the assay on MOLT-4 leukemia. Further, the TGI in the assay on CCRF-CEM leukemia is over 5.47 µM; in the assay with U251 CNS, over 25 µM; with MCF7 breast, over 25 µM; in the assay with HT29 colon, 18.5 µM; in the assay with SF-268 CNS, over 25 µM; in the assay on OVCAR-4 ovarian it was over 25 µM. Besides, the TGI in the assay with UO-31 renal is 14.6 µM; with SK-MEL-5 melanoma, 6.32 µM; with HCC-2998 colon, 21.2 µM; with CAKI-1 renal, 9.89 µM; with OVCAR-3 ovarian it was over 25 µM; in the assay on HOP-92 NSCLC, over 7.8 µM. In addition, the TGI in the assay with SK-MEL-2 melanoma came to 6.75 µM.
For the molecule `COCC(N=CN1CCCc2ccccc2[C@@H]1CCCCl)C(C)(C)C` (some centres undefined), the TGI was 9.48 µM in the assay on MDA-MB-231 breast; 8.95 µM in the assay with RPMI-8226 leukemia; 14.2 µM with IGROV1 ovarian; over 100 µM with HCT-15 colon; over 100 µM in the assay with DU-145 prostate; 15.5 µM in the assay with MOLT-4 leukemia. The concentration for total growth inhibition (TGI) in the assay with CCRF-CEM leukemia is over 100 µM; in the assay on U251 CNS, 34.8 µM; with MCF7 breast, 4.28 µM; in the assay with HT29 colon, 69.7 µM; with SF-268 CNS, over 100 µM; with OVCAR-4 ovarian, 36 µM. In addition, the TGI in the assay on UO-31 renal amounted to 33.2 µM; with SK-MEL-5 melanoma it was 9.35 µM; in the assay with HCC-2998 colon it was 33.9 µM; in the assay with CAKI-1 renal, 31.9 µM; with OVCAR-3 ovarian, 0.729 µM; with HOP-92 NSCLC it was 30 µM. In addition, in the assay on SK-MEL-2 melanoma, the TGI was 38.3 µM.
Take `O=C(N/N=C/c1ccc2c(c1)OCO2)Nc1ccccc1Cl`: the TGI in the assay on MDA-MB-231 breast is over 100 µM; in the assay on RPMI-8226 leukemia, over 56.2 µM; in the assay with IGROV1 ovarian, over 35.3 µM; in the assay on HCT-15 colon, over 100 µM; in the assay with DU-145 prostate it was over 20.3 µM; in the assay with MOLT-4 leukemia, over 100 µM. The TGI in the assay with CCRF-CEM leukemia was over 100 µM; with U251 CNS it was over 100 µM; in the assay on MCF7 breast it was over 100 µM; in the assay on HT29 colon it was over 49.1 µM; in the assay on SF-268 CNS, over 82.5 µM; with OVCAR-4 ovarian it was over 100 µM. Also, the TGI in the assay on UO-31 renal is over 100 µM; in the assay with SK-MEL-5 melanoma, 15.3 µM; in the assay on HCC-2998 colon, 5.14 µM; in the assay with CAKI-1 renal, over 100 µM; in the assay on OVCAR-3 ovarian, 2.82 µM; in the assay on HOP-92 NSCLC it was over 40 µM. For the same molecule, the total growth inhibition concentration (TGI) in the assay on SK-MEL-2 melanoma worked out at 25.2 µM.
With `Nc1nc(Cl)c(N)c(NCC2(CO)CCC2)n1`, the TGI with MDA-MB-231 breast, in the assay with RPMI-8226 leukemia, in the assay on IGROV1 ovarian, with HCT-15 colon, in the assay with DU-145 prostate and in the assay on MOLT-4 leukemia was over 100 µM throughout. Besides, the TGI in the assay with CCRF-CEM leukemia, in the assay with U251 CNS, in the assay with MCF7 breast, with HT29 colon, with SF-268 CNS and in the assay on OVCAR-4 ovarian was over 100 µM throughout. For the same molecule, the TGI in the assay on UO-31 renal, in the assay with SK-MEL-5 melanoma, in the assay on HCC-2998 colon, in the assay with CAKI-1 renal, with OVCAR-3 ovarian and in the assay on HOP-92 NSCLC was over 100 µM each time. Besides, the TGI in the assay on SK-MEL-2 melanoma is over 100 µM.
For the molecule `CC(=O)O[C@@H]1CC[C@@]2(C)C(CC[C@H]3[C@@H]4CC[C@H]([C@H](C)CCc5nc6ccc(C)cc6[nH]5)[C@@]4(C)CC[C@@H]32)C1` (some centres undefined), the total growth inhibition concentration (TGI) in the assay with MDA-MB-231 breast is 55.3 µM; with RPMI-8226 leukemia, 84.3 µM; in the assay with IGROV1 ovarian, 19.1 µM; in the assay on HCT-15 colon it was over 100 µM; in the assay on DU-145 prostate, over 100 µM; in the assay with MOLT-4 leukemia, over 100 µM. The TGI with CCRF-CEM leukemia was 8.47 µM; with U251 CNS, over 100 µM; in the assay on MCF7 breast, over 100 µM; in the assay with HT29 colon, 70.7 µM; in the assay with SF-268 CNS it was over 100 µM; in the assay on OVCAR-4 ovarian, over 100 µM. For the same molecule, the TGI in the assay on UO-31 renal, in the assay with SK-MEL-5 melanoma, in the assay with HCC-2998 colon, in the assay on CAKI-1 renal, with OVCAR-3 ovarian and in the assay on HOP-92 NSCLC was over 100 µM in each case. In the assay on SK-MEL-2 melanoma, this molecule registered a TGI of over 100 µM.
